Assay results taken from patent US8269012B2, “Aminopyrazole triazolothiadiazole inhibitors of c-met protein kinase” (Vertex Pharmaceuticals Incorporated, priority 2009, dated 2012).

Assays:
[1] = test system: A549HGF cells; assay: Inhibition of tumor metastasis to the lungs, subcutaneous A549HGF tumors in SCID mice; format: in vivo
Method: Compound 3 was investigated for its ability to inhibit the metastasis of subcutaneously implanted tumors to the lungs of severe combined immunodeficient (SCID) mice. Accordingly, A549 cells (A549HGF-1m1115, transfected with hepatocyte growth factor, luciferase, and green fluorescent protein) were cultured in RPMI1640 medium (Invitrogen, Carlsbad, Calif.) supplemented with 10% fetal bovine serum (FBS) (Hyclone, Logan, Utah), 100 units/mL of penicillin, […] of streptomycin (Invitrogen, Carlsbad, Calif.), and 2 mM L-glutamine for fewer than 4 passages prior to implantation. […]
Female SCID mice were injected subcutaneously (s.c.) with 5×10^6 A549HGF cells into the right dorsal axillary region on Day 0. […] Ectopic tumor measurements were recorded twice a week for 3 weeks after the initiation of treatment.
In order to evaluate the anti-metastatic potential of Compound 3, at the termination of the study all animal lung tissues were harvested and lysed by homogenization for ex vivo quantification via luciferase luminescence.

[2] = test system: SNU-5 gastric cancer cells; assay: Inhibition of tumor growth of subcutaneously implanted SNU-5 cells in SCID mice; format: in vivo; settings: all three dose levels tested (3, 10, 30 mg/kg/day)
Method: Compound 3 was investigated for its ability to inhibit tumor growth of subcutaneously implanted SNU-5 gastric cancer cells in severe combined immunodeficient (SCID) mice. SNU-5 cells (CRL-5973, American Type Culture Collection, Manassas, Va.) were cultured in ISCOVE's Modified Dulbecco's Medium (IMDM) (Invitrogen, Carlsbad, Calif.) supplemented with 10% fetal bovine serum (FBS) (Hyclone, Logan, Utah), 100 units/mL of penicillin, […] of streptomycin (Invitrogen, Carlsbad, Calif.), and 2 mM L-glutamine. Cells were cultured for fewer than 4 passages prior to implantation. Female SCID mice (Fox Chase SCID, CB-17, mice weighing 17 to 19 g obtained from Charles River Laboratories, Wilmington, MA) were injected subcutaneously (s.c.) with 5×10^6 SNU-5 cells into the right dorsal axillary region on Day 0. […]
Compound 3, formulated in a vehicle containing 30% (w/v) Propylene Glycol and 10% Solutol (Sigma-Aldrich, St Louis, Mo.) as a suspended homogenous form, was administered orally (p.o.) once daily (QD) at total daily doses of 3, 10, and 30 mg/kg/day for 14 days. Tumor volumes (calculated using the ellipsoid formula, […], where length and width represented the largest and smallest dimensions of the tumor, respectively) were recorded for two weeks after the initiation of treatment. […]

Cn1cc(Nc2nn3c(C(F)(F)c4ccc5ncccc5c4)nnc3s2)cn1 [Compound 3, 3-(Difluoro(quinolin-6-yl)methyl)-N-(1-methyl-1H-pyrazol-4-yl)-[1,2,4]triazolo[3,4-b][1,3,4]thiadiazol-6-amine]
formation of lung metastases ([1]; 60 mg/kg/day compared to vehicle controls, p<0.02): significantly inhibits the formation of lung metastases
change in primary A549 tumor cell growth at the site of implantation vs vehicle ([1]; 30 or 60 mg/kg/day p.o. QD, 22 days): no significant change
anti-tumor activity [2]: significant and dose-dependent anti-tumor activity
